Measurements from patent US20240060131A1, “METHOD FOR IDENTIFYING AND/OR REGULATING SENESCENCE” (INSTITUTE OF ZOOLOGY, CHINESE ACADEMY OF SCIENCES, priority 2020, published 2024).
Entries after “also recorded” stand apart in the source; their conditions may differ.

Tests used:
Format in all cases: cell-based, human
[1] = test system: cGAS-STING pathway; assay: cGAS-STING innate immune pathway and SASP in hMPCs (Western blot, RT-qPCR); conditions: hMPCs with activated endogenous HERVK
Description: (§1) Cells were lysed in 1×SDS buffer (100 mM Tris-HCl, pH 6.8, 10% glycerol, 2% SDS and 2%2-mercaptoethanol), boiled for 10 min at 105° C. Protein concentration was measured by BCA kit. Cell lysate was subjected to SDS-PAGE electrophoresis, then transferred to PVDF membrane (Millipore). The membrane was incubated with primary antibody, incubated with secondary antibody conjugated to HRP after washing, then blotted with substrate, the substrate was the mixture of 1000 μL substrate A and 3 μL substrate B (substrate A: 0.2 mM cumaric acid, 1.25 mM luminal, 0.1 M Tris-HCl, pH 8.5; substrate B: 3% H2O2) or Super Signal West Femto Maximum Sensitivity Substrate (Thermo Fisher Scientific). Images were taken by Image Lab software. Quantification was conducted by ImageJ.
(§2) In accordance with the manufacturer's instructions, total RNA of cell was extracted by TRIzol (Thermo Fisher Scientific); reverse transcribed into cDNA with GoScript reverse transcription system (Promega) for RT-qPCR; RT-qPCR was conducted with THUNDERBIRD qPCR Mix (TOYOBO) and CFX384 real-time system (Bio-Rad Laboratories, Inc.).
To further study the activation of cGAS-STING DNA sensing pathway, the following key characteristics in different senescent hMPCs (including RS, HGPS and WS) and fibroblasts were detected: […] TANK binding kinase 1 (TBK1) and IFN regulating factor 3 (IRF3) as well as proinflammatory cytokines (e.g., IL1B andIL6), these factors were regarded as SASP factors.

[2] = test system: HERVK-LTR5HS; assay: ChIP-qPCR of 5 mC occupation in HERVK-LTR5HS in treated hMPCs; conditions: hMPCs of early passage; vs cells not treated
Description: (§3) For 5-azacytidine (5-AZA) treatment, hMPCs were seeded (generation 0 (P0) after treatment), and treated by […] 5-AZA for 4 days, followed by passage and culture in fresh medium. At P2 after treatment (6 days after 5-AZA treatment), cells was used for Ki67 immunofluorescence, SA-O-gal staining and RNA/DNA extraction.
Cells were fixed in 1% formaldehyde dissolved in PBS at room temperature for 10 min, and then, quenched by 125 mM glycine. Cells were lysed on ice for 10 min, and subjected to ultrasonic treatment with Covaris S220. Collected supernatant was incubated with Dynabeads Protein A (Life Technologies, 10001D) pre-mixed with 2.3 μg specified antibody at 4° C. overnight. After washing, samples were digested by Protease K (New England Biolabs), eluted and cross-link-reversed on thermal mixer at 68° C. for 2 h. DNA was extracted with phenol-chloroform-isoamylol, and eluted DNA was analyzed by qPCR.
5-AZA (a DNA methyltransferase inhibitor (DNMTi)) was used to treat hMPCs of early passage. ChIP-qPCR and RT-qPCR analyses were performed on treated cells, cells not treated by 5-AZA were used as control.

[3] = test system: HERVK; assay: RT-qPCR and Western blot of HERVK and senescence markers in hMPCs after HERVK activation or 5-AZA treatment; conditions: RT-qPCR
Description: as §1, §2
To activate endogenous HERVK, non-targeted control or lentivirus construct with HERVK LTR targeted sgRNA was cloned to lenti-SAM v2 (addgene #75112) through ESP3I site, and co-transfected with lenti-MPH v2 (addgene #89308). […]
HERVK-activated cell was analyzed by RT-qPCR and Western blot. […]

[4] = test system: hMPCs; assay: Analysis of classical aging characteristics (SA-β-gal, Ki67, clonal expansion) in hMPCs; conditions: hMPCs after HERVK activation or 5-AZA treatment
Description: Cells seeded on coverslip (Thermo Fisher Scientific) were washed by PBS, fixed in 4% paraformaldehyde (PFA), permeabilized in 0.4% Triton X-100, blocked by 10% donkey serum. The coverslip was incubated with primary antibody at 4° C. in blocking buffer, then incubated with secondary antibody at room temperature for 1 h. Nucleus was labelled by Hoechst 33342 (Invitrogen).
as §3
For lentivirus transduction, hMPCs were seeded (P0 after treatment) and incubated with lentivirus in the presence of polybrene (Sigma-Aldrich) for 24 h. After two passages, treated cells were used for Ki67 immunofluorescence, SA-β-gal staining and RNA/DNA extraction.
5 thousand cells were seeded in one well of 6-well plate (Corning) cover with gelatin (Sigma), and cultured for about 10 days. Cells were fixed by 4% PFA, stained by 10% crystal violet for 30 min. Relative cell integral density was calculated by ImageJ software.
Cells were fixed by a buffer containing 2% (w/v) formaldehyde and 0.2% (w/v) glutaraldehyde for 5 min, and treated by staining buffer containing 1 mg/mL X-gal at 37° C. overnight.
In particular, relative percentage of cells positive for senescence associated β-galactosidase (SA-β-gal) was increased, the number of Ki67 positive cells was decreased and the clonal expansion ability was reduced (as shown by FIGS. 12C-12E).

Nc1ncn([C@@H]2O[C@H](CO)[C@@H](O)[C@H]2O)c(=O)n1 [5-AZA, 5-azacytidine]
expression of SASP cytokine [1]: up-regulated
level of phosphorylated IRF3 [1]: increased
level of phosphorylated RelA [1]: increased
level of phosphorylated TBK1 [1]: increased
5 mC occupation in HERVK-LTR5HS [2]: reduce; also recorded: decrease
senescence marker p16INK4a level [3]: increased
HERVK RNA level ([3]; vs untreated or non-targeting sgRNA control): increase
SA-β-gal positive cells [4]: increased
cell senescence (overall) [4]: caused premature senescence; also recorded: induces senescence
clonal expansion ability [4]: reduced
number of Ki67 positive cells [4]: decreased
